Source: US10995068B2, “Synthetic sphingolipid-like molecules, drugs, methods of their synthesis and methods of treatment” (The Regents of the University of California, priority 2015, dated 2021)

Test: Mass spectrometry quantification of SH-BC-893 in plasma and tumor
Assay type: in vivo
Details: SW620 xenograft mice, UPLC-MS/MS
Method: In many embodiments, exemplary experimentation was carried out to determine whether azacyclic constrained sphingolipid-lipid molecules inhibited neoplastic growth in vivo. To carry out this experimentation, luciferase-expressing SW620 xenografts were generated in mice.
Mass spectrometry quantification of SH-BC-893. As an internal standard, 75 ng FTY720 was added to 50 μl plasma or 50 μl of tumor homogenate (0.25 M sucrose, 25 mM KCl, 50 mM Tris HCl, 0.5 mM EDTA, pH 7.4; 1:9 wt:volume) combined 1:1 with acetonitrile. Proteins were precipitated and removed by centrifugation (10 min at 15,000 rpm) and the supernatant transferred to a fresh tube on ice containing 50 μl of acetonitrile+0.2% acetic acid. After a second de-proteination with acetonitrile+0.2% acetic acid, 20 μl of de-proteinated samples were analyzed by UPLC-MS/MS using a Waters Micromass Quattro Premier XE equipped with a C18 reversed phase column (Waters) with an acetonitrile+0.2% acetic acid gradient elution. The instrument was operated in positive ion mode. Ion transition channels for multiple reaction monitoring were 290→104 for SH-BC-893 with a dwell time of 200 msec. The cone voltage was 30V. Standard curves used for quantitation were linear from 50-1000 ng/ml with an R^2 of 0.98 or greater. Recovery of internal standard was >80%. Tumor concentrations were calculated assuming that 1 gm=1 mL.

CCCCCCCCc1ccc([C@H]2CCN[C@@H]2CO)cc1.Cl [Compound 5, (2S,3R)-2-(hydroxymethyl)-3-(4-octylphenyl)Pyrrolidinium chloride]
concentration in plasma at sacrifice: low micromolar concentrations | concentration in tumors at sacrifice: low micromolar concentrations
